From PMC9145706 (Molecules, 2022)
Read-outs that look alike come from different tables or passages of the source.

Molecular target: T1, AChE enzyme from electric eel (EeAChE) (type VI) (Electrophorus electricus, UniProt O42275)
T1 construct: purchased Sigma-Aldrich, Steinheim, Germany type VI (catalogue number not given)
Test: In vitro AChE inhibition assay (modified Ellman method)
Assay type: biochemical
Experimental: AChE enzyme from electric eel (EeAChE) (type VI), acetylthiocholine iodide, Ellman reagent, 5,5-dithiobis-2-nitro benzoic acid (DTNB), and Eserine (standard inhibitor) were purchased from Sigma-Aldrich, Steinheim, Germany. AChE inhibitory activity was performed in vitro using a modified spectrophotometric method developed by Ellman et al.. Experiments were carried out in a 96-well microtiter plate using a Multiskan spectrum spectrophotometer. The test compounds were prepared immediately before the experiment as fresh samples. Each compound was dissolved in 200 μL methanol, 150 μL […] phosphate buffer (pH 8.0), and 20 μL AChE enzyme. An aliquot of 10 μL of resulting test solutions was mixed and incubated at 25 °C for 10 min. The sample with 10 μL of solvent (methanol) rather than the test compound served as a negative control. After 10 min, 10 μL DTNB was added to the wells and the reaction was initiated with the addition of 10 μL acetylthiocholine (ATCh). All of the samples were prepared and analyzed in triplicate. The hydrolysis of ATCh was monitored at wavelength 412 nm by measuring the formation of a yellow anion of 5-thio-2-nitrobenzoate due to the reaction of DTNB with thiocholine. The initial rate was measured as the change in optical density/min (OD/min). As the extinct coefficient of the yellow anion is known, the following equation was used to calculate the rate of the enzymatic reaction: (1) Rate (moles/L/min) = change in absorbance/εTNB where εTNB is the molar extinction coefficient value of 5-thio-2-nitrobenzoate = 13.6 × 10^3 at 412 nm.
The following formula was used to calculate the % enzyme inhibition by test compounds:(2) % inhibition = 1−Rate of change in the absorbance of test/Rate of change in the absorbance of cotrol × 100
Chalcone solutions were serially diluted to different concentrations (0.0977–50 µM) and were analyzed in triplicate using the above-described modified Ellman’s method. Finally, IC50 values were determined and statistically analyzed using EZ-Fit Enzyme Kinetic Program (Perrella Scientific Inc., Amherst, MA, USA).

[1] = EeAChE, Ellman method, triplicate, 25 °C, pH 8.0, read-out: IC50 (AChE inhibitory activity)

T1 sequence (O42275 24-633): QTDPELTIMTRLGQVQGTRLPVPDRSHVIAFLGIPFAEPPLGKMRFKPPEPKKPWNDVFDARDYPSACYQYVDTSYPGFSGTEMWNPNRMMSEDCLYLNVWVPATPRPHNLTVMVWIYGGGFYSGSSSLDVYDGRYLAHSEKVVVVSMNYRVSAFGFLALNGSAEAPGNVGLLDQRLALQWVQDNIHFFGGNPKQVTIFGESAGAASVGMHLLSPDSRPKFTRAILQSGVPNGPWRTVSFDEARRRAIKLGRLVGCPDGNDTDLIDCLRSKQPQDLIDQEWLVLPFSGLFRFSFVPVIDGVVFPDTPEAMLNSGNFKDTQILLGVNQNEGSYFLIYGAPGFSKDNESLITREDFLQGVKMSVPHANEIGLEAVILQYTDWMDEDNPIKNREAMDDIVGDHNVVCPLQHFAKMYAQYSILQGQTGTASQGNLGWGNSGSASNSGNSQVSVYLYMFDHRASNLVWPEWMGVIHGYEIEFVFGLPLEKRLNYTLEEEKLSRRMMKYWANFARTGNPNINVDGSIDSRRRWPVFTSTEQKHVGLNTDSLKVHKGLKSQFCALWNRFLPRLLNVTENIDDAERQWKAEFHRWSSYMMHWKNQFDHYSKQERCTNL

SMILES	IC50 [1] [µM]	IC50 [µM]
O=C(/C=C/c1ccccc1)c1ccc(Cl)cc1 [Compound C1, (E)-1-(4-chlorophenyl)-3-phenylprop-2-en-1-one]	22 ± 2.8	
CCc1ccc(C(=O)/C=C/c2ccc([N+](=O)[O-])cc2)cc1 [Compound C2, (E)-1-(4-ethylphenyl)-3-(4-nitrophenyl)prop-2-en-1-one]	31.2 ± 1.8	
COc1ccc(/C=C/C(=O)c2ccc(Cl)cc2)cc1 [Compound C3, (E)-1-(4-chlorophenyl)-3-(4-methoxyphenyl)prop-2-en-1-one]		32 ± 2.4
O=C(/C=C/c1ccc([N+](=O)[O-])cc1)c1ccc(Br)cc1 [Compound C5, (E)-1-(4-bromophenyl)-3-(4-nitrophenyl)prop-2-en-1-one]	37.6 ± 0.75	
